This note sets out measurements from ChEMBL document CHEMBL5584269 (Bioorg Med Chem Lett, 2024).

The source made the active and inactive calls. No cut-off for these calls is given here.

Test [1] has as its system Leishmania donovani. Nature of the test: Antileishmanial activity against Leishmania donovani amastigotes infected in human THP-1 cells assessed as reduction in parasite growth incubated for 72 hrs by alamar blue dye based fluorescence analysis. The class given is functional, organism-based. To be noted: THP-1, 72 h. On the technique in general: Resazurin is reduced to fluorescent resorufin, in cell work by metabolically active cells.

Test [2] concerns Trypanosoma brucei. Description: Induction of morphological change in bloodstream trypomastigote form of Trypanosoma brucei Lister 427 assessed as appearance of swollen cells at EC10 incubated for 48 hrs by DAPI staining based immunofluorescence analysis. The class given is functional, organism-based.
The subject of test [3] is Trypanosoma brucei. Description: Antitrypanosomal activity against bloodstream trypomastigote form of Trypanosoma brucei Lister 427 assessed as reduction in parasite growth incubated for 72 hrs by alamar blue dye based fluorescence analysis. Conditions: Lister 427, 72 h. The class given is functional, organism-based.
The test system of the next test is THP-1. Nature of the test: Cytotoxicity against human THP-1 cells incubated for 72 hrs by alamar blue cell viability assay. The class given is functional, cell-based. Conditions: THP-1, 72 h.
Test [4] concerns Leishmania major. Description: Antileishmanial activity against promastigote form of Leishmania major Freidlin assessed as morphological change at EC10 incubated for 48 hrs by DAPI staining based immunofluorescence analysis. The class given is functional, organism-based.
The subject of test [5] is Trypanosoma cruzi. Nature of the test: Antitrypanosomal activity against epimastigote form of Trypanosoma cruzi CL Brener assessed as reduction in parasite growth incubated for 72 hrs by alamar blue dye based fluorescence analysis. The class given is functional, organism-based.
In test [6] the test system is Leishmania donovani. Description: Antileishmanial activity against promastigote form of Leishmania donovani assessed as reduction in parasite growth incubated for 72 hrs by alamar blue dye based fluorescence analysis. The class given is functional, organism-based.
Another test deals with HeLa. Description: Cytotoxicity against human HeLa cells incubated for 72 hrs by alamar blue cell viability assay. The class given is functional, cell-based.
Test [7] concerns Leishmania major. Description: Antileishmanial activity against promastigote form of Leishmania major Freidlin assessed as reduction in parasite growth incubated for 72 hrs by alamar blue dye based fluorescence analysis. The class given is functional, organism-based.
In test [8] the test system is Leishmania donovani. Nature of the test: Antileishmanial activity against Leishmania donovani axenic amastigotes assessed as reduction in parasite growth incubated for 72 hrs by alamar blue dye based fluorescence analysis. The class given is functional, organism-based.
In test [9] the test system is Trypanosoma brucei. Description: Induction of morphological change in bloodstream trypomastigote form of Trypanosoma brucei Lister 427 assessed as reduction in cytokinesis at EC10 incubated for 48 hrs by DAPI staining based immunofluorescence analysis. The class given is functional, organism-based.
A short description of test [10]: Selectivity ratio of EC50 for antileishmanial activity against Leishmania donovani amastigotes infected in human THP-1 cells to EC50 for cytotoxicity against human THP-1 cells. The class given is functional.
Test [11] relates to Trypanosoma cruzi. Nature of the test: Antitrypanosomal activity against epimastigote form of Trypanosoma cruzi CL Brener assessed as fold change in reduction of parasite growth incubated for 72 hrs by alamar blue dye based fluorescence analysis relative to miltefosine. The class given is functional.

Consider `COC(=O)[C@@H]1CCCN1C(=O)CCSCc1ccccc1`, for which the EC50 (usually the midpoint of the concentration-response curve) in the test with Leishmania donovani [1] is 4.98 µM; in the test on Trypanosoma brucei [3] it was 6.9 µM; in the test on THP-1 it was above 250 µM; in the test on Trypanosoma cruzi [5], 5.1 µM; in the test on Leishmania donovani [6] it was 1.18 µM; in the test with HeLa, above 250 µM. For the same compound, the EC50 with Leishmania major [7] worked out at 1.24 µM; with Leishmania donovani [8], 0.91 µM. Besides, the outcome in the test on Trypanosoma brucei [2] and with Trypanosoma brucei [9] was Active. Also, the outcome in the test with Leishmania major [4] was inactive. In test [10], the “Ratio EC50” value is recorded as 50. The “fold change (FC)” value with Trypanosoma cruzi [11] worked out at 3.
